Experimental data from patent US20240373891A1, “SWEETENER BLEND COMPRISING THAUMATIN AND MOGROSIDES” (NOMAD BIOSCIENCE GMBH, priority 2021, published 2024).

B1: Thaumatin II: protein of SEQ ID NO: 2, purity greater than 90%, recombinantly expressed in plants (protein, listed as Thaumatococcus daniellii)
chain: ATFEIVNRCSYTVWAAASKGDAALDAGGRQLNSGESWTINVEPGTKGGKIWARTDCYFDDSGRGICRTGDCGGLLQCKRFGRPPTTLAEFSLNQYGKDYIDISNIKGFNVPMDFSPTTRGCRGVRCAADIVGQCPAKLKAPGGGCNDACTVFQTSEYCCTTGKCGPTEYSRFFKRLCPDAFSYVLDKPTTVTCPGSSNYRVTFCPTA

Experiments:
[1] = Round table evaluation of sweetness intensity (SEV) against sucrose reference samples; type: in vivo; conditions: mean of test panelists
Protocol: • Round table evaluations were performed with test panelists. Equal sweet 5 SEV concentrations in neutral pH water were made for Thaumatin II (purity greater than 90%), Mogroside V, and Siamenoside I. These equal sweet solutions were also mixed at 50% of Thaumatin II and 50% Mogroside V or Siamenoside I and compared to the individual components. The components of the test compositions are described in the below tables. The mixed compositions were calculated using the Beidler mixture equation for the sweeteners. The Beidler mixture equation for sweeteners is as follows: […]
The concentration of each component in the mixture in ppm is divided by SEV (c/R) and is plotted against concentration, c. The […]. The y-intercept of the linear regression multiplied by Rmaxis the half-maximal sweetness concentration, 1/K. Rmax and 1/K are the two parameters used in the Beidler equation. Mixtures were tasted in comparison to reference samples for the panelists to determine SEV values. References samples were 3%, 4%, 5%, 6%, 7%, and 8% sucrose in neutral pH water. The test samples were served in 2 ounce soufflé cups (approximately 60 ml) coded with 3-digit codes at room temperature. A two minute wait period between samples was enforced. Water and unsalted crackers was available for the panelists to clear their palates before and during testing. Results were collected for calculating approximate SEV level of each test sample. • The test products analyzed in this experiment are described below in Table 1.

[2] = Round table qualitative assessment of quality of sweetness and undesirable attributes, scale 1-10; type: in vivo; conditions: for Off taste (lower better) / Quality of sweetness (higher better): scale of 1-10, 6 panelists; for Quality of sweetness (higher better): 5% sucrose control
Protocol: • Round table evaluations were performed with 6 test panelists. Equal sweet 5 SEV concentrations in neutral pH water were made for Thaumatin II (purity greater than 90%), Mogroside V, and Siamenoside I. These equal sweet solutions were also mixed at 50% of Thaumatin II and 50% Mogroside V or Siamenoside I and compared to the individual components. All solutions were coded and blinded from panelists. Panelists were asked to provide a qualitative assessment on a scale of 1-10 of the quality of sweetness (10 being the highest quality of sweetness) and undesirable attributes (10 being most undesirable) of each solution using a 5% sucrose solution as a control.

[3] = summary of Example 2, compared with sucrose

| Molecule | Sweetness intensity determined, SEV ([1]; 250 ppm in neutral pH water) [SEV] | Off taste (lower better) ([2]; 250 ppm in neutral pH water) | Quality of sweetness (higher better) ([2]; 250 ppm in neutral pH water) | Sweetness quality and off taste, in words ([2]; summary of Example 2) | Sweetness onset, in words [2, 3] | Sweetness intensity determined, SEV ([1]; 7 ppm in neutral pH water) [SEV] | Off taste (lower better) ([2]; 7 ppm in neutral pH water) | Quality of sweetness (higher better) ([2]; 7 ppm in neutral pH water) | Sweet aftertaste, in words [2, 3] |
| --- | --- | --- | --- | --- | --- | --- | --- | --- | --- |
| C[C@H](CC[C@@H](O[C@@H]1O[C@H](CO[C@@H]2O[C@H](CO)[C@@H](O)[C@H](O)[C@H]2O)[C@@H](O)[C@H](O)[C@H]1O[C@@H]1O[C@H](CO)[C@@H](O)[C@H](O)[C@H]1O)C(C)(C)O)[C@H]1CC[C@@]2(C)[C@@H]3CC=C4[C@@H](CC[C@H](O[C@@H]5O[C@H](CO)[C@@H](O)[C@H](O)[C@H]5O)C4(C)C)[C@]3(C)[C@H](O)C[C@]12C [Siamenoside I] | 6.0 | 2.6 | 7.8 | very mild off notes were detected | rapid | – | – | – | – |
| C[C@H](CC[C@@H](O[C@@H]1O[C@H](CO[C@@H]2O[C@H](CO)[C@@H](O)[C@H](O)[C@H]2O)[C@@H](O)[C@H](O)[C@H]1O[C@@H]1O[C@H](CO)[C@@H](O)[C@H](O)[C@H]1O)C(C)(C)O)[C@H]1CC[C@@]2(C)[C@@H]3CC=C4[C@@H](CC[C@H](O[C@@H]5O[C@H](CO[C@@H]6O[C@H](CO)[C@@H](O)[C@H](O)[C@H]6O)[C@@H](O)[C@H](O)[C@H]5O)C4(C)C)[C@]3(C)[C@H](O)C[C@]12C [Mogroside V] | 5.3 | 3.3 | 7.5 | very mild off notes were detected | rapid | – | – | – | – |
| B1 | – | – | – | clean sweetness without any off taste | slightly delayed | 4.8 | 4.9 | 5.3 | lasted longer |
